Data taken from US20130023585A1, “Neuraminidase Inhibitors” (TSRL, INC., priority 2010, published 2013).
Read-outs that look alike come from different tables or passages of the source. Marks after values point to notes of the source that are not given here.

Tests used:
[1] = cited from earlier work
[2] = for Plasma concentration of Zanamivir: iv dose 1 mg/kg
[3] = system: Influenza A/NWS/33 (H1N1); type: in vivo, BALB/c mice; conditions: for Survivors/Total: twice a day for 5 days, observed 21 days
[4] = system: Flu A Duck/MN/1525/81 (H5N1); assay: microbe, parasite or virus in culture; type: cell-based; conditions: Influenza A virus, H5N1, MDCK, read-out: 50% effective concentration (EC50)
Flu B Florida/4/2006 = assay: microbe, parasite or virus in culture; type: cell-based; conditions: unidentified influenza virus, read-out: 50% effective concentration (EC50)
Victoria/3/75 (H3N2) = assay: microbe, parasite or virus in culture; type: cell-based; conditions: Influenza A virus, read-out: 50% effective concentration (EC50)
[5] = system: Flu A Vietnam/1203/2004 (H5N1) × A/Ann Arbor/6/60 (H1N1 core genes); assay: microbe, parasite or virus in culture; type: cell-based; conditions: Influenza A virus, MDCK, read-out: 50% effective concentration (EC50)
Brisbane/59/2007 (H1N1) = assay: microbe, parasite or virus in culture; type: cell-based; conditions: Influenza A virus, read-out: 50% effective concentration (EC50)
Sichuan/379/99 = assay: microbe, parasite or virus in culture; type: cell-based; conditions: unidentified influenza virus, read-out: 50% effective concentration (EC50)
in vivo = conditions: mouse
[6] = system: California/04/2009 (H1N1); assay: microbe, parasite or virus in culture; type: cell-based; conditions: Influenza A virus, read-out: 50% effective concentration (EC50)
[7] = mouse, in vivo, 10 mg/kg/day
NWS/33 (H1N1) = assay: microbe, parasite or virus in culture; type: cell-based; conditions: Influenza A virus, read-out: 50% effective concentration (EC50)
influenza virus = conditions: versus oseltamivir carboxylate; cited from earlier work
Brisbane/10/2007 (H3N2) = assay: microbe, parasite or virus in culture; type: cell-based; conditions: Influenza A virus, read-out: 50% effective concentration (EC50)
[8] = system: Solomon Islands/03/2006 (H1N1); assay: microbe, parasite or virus in culture; type: cell-based; conditions: Influenza A virus, read-out: 50% effective concentration (EC50)

For `CC(=O)N[C@H]1[C@H]([C@H](O)[C@H](O)CO)OC(C(=O)O)=C[C@@H]1N=C(N)N` [Zanamivir], the oral bioavailability ([1]; in vivo, po) is given as “about 2%”, the “Plasma concentration of Zanamivir” value ([2]; 0.03 hours) is given as 4018.3 ng/mL and the “Plasma concentration of Zanamivir” value ([2]; 0.08 hours) is given as 2487.5 ng/mL. The “Plasma concentration of Zanamivir” value ([2]; 0.25 hours) was 633.8 ng/mL, the “Plasma concentration of Zanamivir” value ([2]; 0.50 hours) was 212.0 ng/mL and the “Plasma concentration of Zanamivir” value ([2]; 1.00 hours) was 78.6 ng/mL. For the same molecule, the “Plasma concentration of Zanamivir” value ([2]; 2.00 hours) was 14.0 ng/mL and the AUC ([2]; mouse, in vivo, iv, 1 mg/kg) was 202.4 (ng/ml) × hr.

In the case of `CCC(CC)OC1C=C(C(=O)OC(OC(=O)C(N)C(C)C)c2ccccc2)CC(NC(=N)N)C1NC(C)=O` (mixture of isomers) [GOC-Benzyl-Val], the AUC (mouse, in vivo, iv, 1 mg/kg) is reported as 867 ± 110 ng·h/mL, the CL (mouse, in vivo, iv, 1 mg/kg) is reported as 31 mL/h and the T1/2 (mouse, in vivo, iv, 1 mg/kg) is reported as 1.15 h. It also gave a Vz (mouse, in vivo, iv, 1 mg/kg) of 50.8 mL, an AUC (mouse, in vivo, po, 10 mg/kg) of 1171 ± 357 ng·h/mL and a CL (mouse, in vivo, po, 10 mg/kg) of 195 mL/h. The Cmax (mouse, in vivo, po, 10 mg/kg) was 192 ± 48 ng/mL, the T1/2 (mouse, in vivo, po, 10 mg/kg) was 7.14 h and the Tmax (mouse, in vivo, po, 10 mg/kg) was 1.0 ± 0.0 h. The Vz (mouse, in vivo, po, 10 mg/kg) was 2014 mL.

In the case of `CCOC(=O)C1=C[C@@H](OC(CC)CC)[C@H](NC(C)=O)[C@@H](NC(=N)N)C1`, the oral bioavailability ([1]; oral) is given as “approximately 2%”.

For `CCC(CC)O[C@@H]1C=C(C(=O)O)C[C@H](NC(=N)N)[C@H]1NC(C)=O` [GOC, 4-guanidinio oseltamivir carboxylate], the “MDD ± SD (mean day of death of mice that died prior to day 21)” value (“MDD ± SD” for short) ([3]; 0.1 mg/kg/day) was 9.0 ± 1.0, the “protective from the lethal infection” value ([3]; 0.1 mg/kg/day) was “not active” and the Survivors/Total ([3]; 0.1 mg/kg/day per oral) was 0/10. For the same molecule, the “MDD ± SD” value ([3]; 1 mg/kg/day) was 9.8 ± 1.2, the “protective from the lethal infection” value ([3]; 1 mg/kg/day) was “not active” and the Survivors/Total ([3]; 1 mg/kg/day per oral) was 1/10. The “protective from the lethal infection” value ([3]; 10 mg/kg/day) was 100%, the “weight loss during the infection (FIG. 2)” value ([3]; 10 mg/kg/day) was “Some weight loss” and the Survivors/Total ([3]; 10 mg/kg/day per oral) was 10/10**. The EC50 [4] was 1.2 nM, the AUC (mouse, in vivo, po, 10 mg/kg) was 327 ± 98 ng·h/mL and the Cmax (mouse, in vivo, po, 10 mg/kg) was 73 ± 30 ng/mL. The T1/2 (mouse, in vivo, po, 10 mg/kg) was 1.65 h, the EC50 (Flu B Florida/4/2006; MDCK cells, 3 to 4 days) was 460 nM and the EC50 (Victoria/3/75 (H3N2); H3N2, MDCK cells, 3 to 4 days) was 38 nM. The EC50 [5] was 0.28 nM, the oral bioavailability ([1]; oral) was about 4.0% and the EC50 (Brisbane/59/2007 (H1N1); H1N1, MDCK cells, 3 to 4 days) was 4 nM. The EC50 (Sichuan/379/99; MDCK cells, 3 to 4 days) was over 3200 nM, the bioavailability (in vivo; 10 mg/kg, BA (bioavailability of GOC)) was 4.3% and the Vd (in vivo; iv, 1 mg/kg) was 0.0678 L. For the same molecule, the clearance (in vivo; iv, 1 mg/kg) was 0.883 mL/min, the AUC (in vivo; iv, 1 mg/kg, mice, GOC in plasma) was 541 ± 229 ng·h/mL and the half-life (in vivo; iv, 1 mg/kg, T1/2, mice) was 0.88 h. For the same molecule, the AUC (in vivo; po, 10 mg/kg) was 232 ± 43 ng·h/mL, the Cmax (in vivo; po, 10 mg/kg, Cmax) was 43 ± 29 ng/mL and the half-life (in vivo; po, 10 mg/kg, T1/2) was 1.21 h. For the same molecule, the Tmax (in vivo; po, 10 mg/kg) was 3 ± 1.2 h, the Tmax (in vivo; po, 10 mg/kg, mice, PO (fasted), GOC in plasma) was 1.3 ± 1 h and the EC50 ([6]; H1N1, MDCK cells, 3 to 4 days) was 16 nM. The “Mean Weight Change Day 5” value [7] was −0.3 grams, the “Mean Weight Change Day 5, % of initial body weight (in parenthesis)” value (shortened to “Mean Weight Change Day 5, %”) [7] was −2.1% and the “Mean Weight Change, day 7” value [7] was −0.2 grams. The “Mean Weight Change, day 7, % of initial body weight (in parenthesis)” value (“Mean Weight Change, day 7, %” for short) [7] was −1.0%, the EC50 (NWS/33 (H1N1); H1N1, MDCK cells, 3 to 4 days) was under 32 nM and the “times more potent in tissue culture of influenza virus replication” value (influenza virus) was 10 times. The EC50 (Brisbane/10/2007 (H3N2); H3N2, MDCK cells, 3 to 4 days) was over 320 nM and the EC50 ([8]; H1N1, MDCK cells, 3 to 4 days) was 4.2 nM.

With `CCC(CC)O[C@@H]1C=C(C(=O)O)C[C@H](N)[C@H]1NC(C)=O` [Oseltamivir Carboxylate, Oseltamivir carboxylate] the EC50 [4] was 150 nM, the EC50 (Flu B Florida/4/2006; MDCK) was over 3200 nM and the EC50 (Victoria/3/75 (H3N2); H3N2, MDCK) was over 320 nM. For the same molecule, the EC50 [5] was 2.8 nM, the oral bioavailability ([1]; oral) was about 4.0% and the EC50 (Brisbane/59/2007 (H1N1); H1N1, MDCK) was over 320 nM. It also gave an EC50 (Sichuan/379/99; MDCK) of over 3200 nM, an EC50 ([6]; H1N1, MDCK) of 300 nM and an EC50 (NWS/33 (H1N1); H1N1, MDCK) of 580 nM. For the same molecule, the EC50 (Brisbane/10/2007 (H3N2); H3N2, MDCK) was over 320 nM and the EC50 ([8]; H1N1, MDCK) was over 320 nM.

For `CCC(CC)OC1C=C(C(=O)OC(C)OC(=O)C(N)C(C)C)CC(NC(=N)N)C1NC(C)=O` (mixture of isomers) [GOC-Me-Val], the “MDD ± SD” value ([3]; 0.1 mg/kg/day) was 10.0 ± 1.3, the “protective from the lethal infection” value ([3]; 0.1 mg/kg/day) was “inactive” and the Survivors/Total ([3]; 0.1 mg/kg/day per oral) was 0/10. For the same molecule, the “MDD ± SD” value ([3]; 1 mg/kg/day) was 10.7 ± 0.6, the “protective from the lethal infection” value ([3]; 1 mg/kg/day) was 70% and the “weight loss during the infection (FIG. 2)” value ([3]; 1 mg/kg/day) was “Severe weight loss”. For the same molecule, the Survivors/Total ([3]; 1 mg/kg/day per oral) was 7/10**, the “protective from the lethal infection” value ([3]; 10 mg/kg/day) was 100% and the Survivors/Total ([3]; 10 mg/kg/day per oral) was 10/10**. The T1/2 (mice, IV, 1 mg/kg) was 1.05 h, the AUC (mouse, in vivo, iv, 1 mg/kg) was 730 ± 60 ng·h/mL and the CL (mouse, in vivo, iv, 1 mg/kg) was 39 mL/h. It also gave a Vz (mouse, in vivo, iv, 1 mg/kg) of 59.5 mL, an AUC (mouse, in vivo, po, 10 mg/kg) of 3205 ± 577 ng·h/mL and a CL (mouse, in vivo, po, 10 mg/kg) of 140 mL/h. For the same molecule, the Cmax (mouse, in vivo, po, 10 mg/kg) was 561 ± 235 ng/mL, the Vz (mouse, in vivo, po, 10 mg/kg) was 276 mL and the “Mean Weight Change Day 5” value [7] was −0.2 grams. For the same molecule, the “Mean Weight Change Day 5, %” value [7] was −0.5%, the “Mean Weight Change, day 7” value [7] was −0.3 grams and the “Mean Weight Change, day 7, %” value [7] was −1.6%. The Survivors/Total [7] was 5/5.

With `CCOC(=O)C1=C[C@@H](OC(CC)CC)[C@H](NC(C)=O)[C@@H](N)C1` [Oseltamivir] the “MDD ± SD” value ([3]; 0.1 mg/kg/day) was 9.7 ± 1.6, the “protective from the lethal infection” value ([3]; 0.1 mg/kg/day) was “ineffective” and the Survivors/Total ([3]; 0.1 mg/kg/day per oral) was 0/10. For the same molecule, the “protective from the lethal infection” value ([3]; 1 mg/kg/day) was 100%, the “weight loss during the infection (FIG. 2)” value ([3]; 1 mg/kg/day) was “lost minimal weight” and the Survivors/Total ([3]; 1 mg/kg/day per oral) was 10/10**. For the same molecule, the “protective from the lethal infection” value ([3]; 10 mg/kg/day) was 100%, the Survivors/Total ([3]; 10 mg/kg/day per oral) was 10/10** and the Survivors/Total ([7]; BALB/c) was 5/5. The “Mean Weight Change Day 5” value [7] was −0.3 grams, the “Mean Weight Change Day 5, %” value [7] was −1.6% and the “Mean Weight Change, day 7” value [7] was −0.1 grams. For the same molecule, the “Mean Weight Change, day 7, %” value [7] was −0.5%.

For `CC(=O)N[C@H]1[C@H]([C@H](O)[C@H](O)CO)OC(C(=O)OC(OC(=O)[C@H](N)C(C)C)C(C)C)=C[C@@H]1NC(=N)N` (stereo partly drawn) [ZAN-Isp-Val], the AUC ([2]; Oral, fasted mice, Zanamivir in plasma) was 2177 (ng/ml) × hr and the “absorption after oral dosing” value ([2]; fasted animals) was “completely absorbed”.
